Data on nine molecules can be found in patent publication US4282245A, “Dibenzothiepin derivatives and a process for producing the same” (Nippon Chemiphar Co., Ltd., priority 1978, dated 1981).

SMILES strings stand for the structures. Where two headings read alike, the source gives them in different places.

This experiment relates to edema in the hind paws (carrageenan). Briefly: carrageenan-induced hind paw edema in rats, oral administration (antiinflammatory effect). Type of experiment: in vivo, Male Wistar rats. To be noted: for inhibition in vivo at 2 mg/kg: Rattus norvegicus, read-out: Inhibition (%) (after 3 hours); for Rate to Indomethacin: relative to Indomethacin = 1.00. How it is done:
Male Wistar rats each weighing about 100 g, one group consisting of 5 to 7 animals, were orally given the compounds of the present invention and Indomethacin as a contrast, and edema was then induced in the hind paws by subcutaneous injection of 0.1 ml of 1% carrageenan one hour after the administration of the test compounds. Thereafter, the volumes of the hind paws with a predetermined lapse of time were measured by a volume differential meter.
For orientation: In the carrageenan paw model, swelling and tenderness develop within hours.

The mark [1] stands for this setting: oral, 2 mg/kg, after 3 hours, carrageenan hind paw edema, male Wistar rats.
Setting [2] is: oral, 2 mg/kg, carrageenan hind paw edema, male Wistar rats.

As to `COc1ccc2c(c1)CC(=O)c1cc(C(C)C(=O)O)ccc1S2` (stereo not drawn) [Compound 2, 2(10,11-dihydro-8-methoxy-11-oxodibenzo[b,f]thiepin2-yl)-propionic acid], the inhibition in vivo at 2 mg/kg under setting [1] turned out to be 48.2%. Under setting [2], the “Rate to Indomethacin” value is 1.9.
For `CC(C(=O)O)c1ccc2c(c1)C(=O)Cc1cc(F)ccc1S2` (stereo not drawn) [Compound 7, 2(10,11-dihydro-8-fluoro-11-oxodibenzo[b,f]thiepin2-yl)-propionic acid] the same measures were 66.8% and 4.56.
In the case of `COc1ccc2c(c1)c(CC(=O)O)c(C)n2C(=O)c1ccc(Cl)cc1` [Indomethacin, reference compound], the inhibition in vivo at 2 mg/kg (po, 3 h) stood at 34.5%. Under setting [2], the “Rate to Indomethacin” value is 1.00.
`CC(C(N)=O)c1ccc2c(c1)C(=O)Cc1cc(F)ccc1S2` (stereo not drawn) [Compound 6, 2(10,11-dihydro-8-fluoro-11-oxodibenzo[b,f]thiepin2-yl)-propionamide]: the inhibition in vivo at 2 mg/kg under setting [1] was found to be 58.4%. Also, the “Rate to Indomethacin” value under setting [2] turned out to be 2.29.
In the same order, the values of `CC(C(N)=O)c1ccc2c(c1)C(=O)Cc1ccc(F)cc1S2` (stereo not drawn) [Compound 8, 2(10,11-dihydro-7-fluoro-11-oxodibenzo[b,f]thiepin2-yl)-propionamide] are 41.9% and 1.45.
`CC(C(N)=O)c1ccc2c(c1)C(=O)Cc1cc(Cl)ccc1S2` (stereo not drawn) [Compound 4, 2(8-chloro-10,11-dihydro-11-oxodibenzo[b,f]thiepin2-yl)-propionamide]: the inhibition in vivo at 2 mg/kg under setting [1] came out at 46.8%. Also, the “Rate to Indomethacin” value under setting [2] is 1.4.
For `CC(C(=O)O)c1ccc2c(c1)C(=O)Cc1cc(Cl)ccc1S2` (stereo not drawn) [Compound 5, 2(8-chloro-10,11-dihydro-11-oxodibenzo[b,f]thiepin2-yl)-propionic acid] the same measures were 61.6% and 2.7.
Take `COc1ccc2c(c1)CC(=O)c1cc(C(C)C(N)=O)ccc1S2` (stereo not drawn) [Compound 1, 2(10,11-dihydro-8-methoxy-11-oxodibenzo[b,f]thiepin2-yl)-propionamide]: under setting [1], the inhibition in vivo at 2 mg/kg was 67.8%. Under setting [2], the “Rate to Indomethacin” value came out at 5.2.
Turning to `CCOc1ccc2c(c1)CC(=O)c1cc(C(C)C(N)=O)ccc1S2` (stereo not drawn) [Compound 3, 2(10,11-dihydro-8-ethoxy-11-oxodibenzo[b,f]thiepin2-yl)-propionamide], the inhibition in vivo at 2 mg/kg under setting [1] was 40.4%. In addition, the “Rate to Indomethacin” value under setting [2] was found to be 1.2.
